Assay results: US20240335539A1, “MODULATION OF BCL-2 TO ENHANCE CHIMERIC ANTIGEN RECEPTOR CANCER IMMUNOTHERAPY EFFICACY” (The Trustees of the University of Pennsylvania, priority 2021, published 2024)
pIC50: −log10 of the molar value.

What was measured:
[1] = system: CART19-BCL-2(WT); test: In vitro venetoclax CART cell toxicity assay; assay type: cell-based; conditions: Homo sapiens; venetoclax on CART19-BCL-2(WT); long-term in vitro assay; n=3 donors; read-out: average IC50 value (CART cell survival)
Description: CART cells were combined with target cancer cells at an E:T ratio of 0.25:1, and co-cultures were evaluated for absolute count of T cells and cancer cells by flow cytometry using CountBright absolute counting beads (ThermoFisher) every three days. Cultures were maintained at a concentration of 1×10^6 total cells/mL. To monitor their differentiation status, CART cells were harvested on day 0, 9, and 18. Next, CART cells were stained with anti-CCR7 and anti-CD45RA antibodies for flow cytometric analysis. CART cells were re-stimulated by PMA/Ionomycin on day 18 after initial stimulation in order to evaluate the anti-tumor activity of long-survived CART cells.
Correct expression of the transgenes in target cells was confirmed by intracellular staining for CAR19 and BCL-2 using flow cytometry (FIG. 10B). […] Additionally, venetoclax CART cell toxicity assays were performed to evaluate whether the mutant BCL-2 could provide resistance to venetoclax.

[2] = system: OCI-Ly18; test: Venetoclax-mediated killing, bioluminescence cytotoxicity assay, 48 hours; assay type: cell-based; conditions: Homo sapiens, read-out: half-maximal inhibitory concentration (IC50)
Description: (§1) FIGS. 2A-2F illustrate the finding that venetoclax and CART19 as a single agent induces concentration- and dose-dependent tumor killing. Luciferase-expressing cancer cells (5×10^4 cells/well) were co-cultured with either various concentrations of venetoclax or different doses of CART19 for 48 hours and luminescence was used to quantify the tumor killing. After 48 hours, luciferin was added to the cells and luminescence was detected using a luminometer (Biotek Synergy H4). Tumor killing (%) was calculated using the formula: (sample−maximal tumor growth)/(lysis control−maximal tumor growth)×100. […] E:T=ratio of effector to target. EC50: Half-maximal effective concentration. CART19: anti-CD19 CAR T cell.
(§2) Cell lines (MINO, Z-138, MAVER, OCI-Ly18, SU-DHL-4, NALM6, MOLM-14 and KG-1) were engineered to express click beetle green, and cell survival was measured using bioluminescence quantification. D-luciferin potassium salt (Perkin-Elmer) was added to cell cultures (final concentration 15 μg/mL) and incubated at 37° C. for 10 minutes. Bioluminescence signal was detected using a BioTek Synergy H4 imager, and signal was analyzed using BioTek Gen5 software. Percent specific lysis was calculated using a control of target cells without effectors. Cytotoxicity assays were established as previously described (Singh, et al., Cancer Discovery 2020; 10(4):552-67) with the addition of vehicle or venetoclax.
(§3) CART19 cells were co-cultured with either vehicle (DMSO) or venetoclax and cytotoxicity was measured at 48 hours. […] This effect was further confirmed using primary NHL cells (MCL) (FIG. 1D). […] Furthermore, to confirm the importance of the BCL-2 pathway in resistance to CART killing, overexpression of BCL-2 was induced in B-cell lymphoma and leukemia cell lines (MINO, SU-DHL-4, and NALM-6) that lack genetic alterations of BCL-2. BCL-2 overexpression led to a significant reduction of tumor killing by CART cell in all models, in particular the venetoclax medium sensitive model (MINO) (FIGS. 4A-4C).

[3] = system: NALM6; test: as above; assay type: cell-based; conditions: Homo sapiens, NALM-6, read-out: half-maximal inhibitory concentration (IC50)
Description: as §1, §2, §3

[4] = system: MINO; test: as above; assay type: cell-based
Description: as §1, §2, §3

[5] = system: NALM6; test: Targeted pro-apoptotic small molecule screening with CART19 against NALM6, killing by luminescence at 48 hours; conditions: drug 100 and 1000 nM with CART19
Description: Killing of NALM6 cells was quantified at 48 hours by luminescence. Drug screening of pro-apoptotic small molecules was performed with two concentrations (100 and 1000 nM). […] Two concentrations of 29 drugs were used (100 nM and 1000 nM). Killing of NALM6 cells was assessed at 48 hours by luminescence. […] UTD: untransduced T cells; CART19: anti-CD19 CAR T cell; MCL: mantle cell lymphoma; E:T=ratio of effector to target; IAP: Inhibition of apoptosis protein.
CART19 and NALM6 (luciferase+) cells were seeded at a ratio of 0.08E:1T (i.e., 600 CART: 7000 NALM6) per well in 25 μl of growth medium (RPMI1640+10% FBS+1% Pen-strep+1% glutamine) of 384-well Corning 3570 microplate using a Multidrop™ Combi Reagent Dispenser (Thermo Scientific). Following cell seeding, drugs (50 nL) were transferred to assay plates using a 50 nL slotted pin tool (V&P Scientific) and a JANUS Automated Workstation (Perkin Elmer). Compounds/drugs were added to a final concentration of 1 μM in 0.2% DMSO. Columns 1 and 23 were treated with 0.2% DMSO (negative control). […] Luminescence was measured on an EnVision Xcite Multilabel Plate Reader (PerkinElmer), using the ultrasensitive luminescence measurement technology.
In order to screen pro-apoptotic small molecules that can enhance CART cell killing, a targeted screening assay was performed. […] Tumor killing was measured by luminescence at 48 hours.

## CC1(C)CCC(CN2CCN(c3ccc(C(=O)NS(=O)(=O)c4ccc(NCC5CCOCC5)c([N+](=O)[O-])c4)c(Oc4cnc5[nH]ccc5c4)c3)CC2)=C(c2ccc(Cl)cc2)C1 [venetoclax]
[1]
  pIC50: 6.00
[2]
  pIC50: 7.73
[3]
  pIC50: 5.89
[4]; Homo sapiens, MINO, 48 hours, read-out: half-maximal inhibitory concentration (IC50)
  pIC50: 7.17
[4]; MINO vs OCI-Ly18
  IC50 for MINO relative to OCI-Ly18: 5 fold
[5]
  Enhancement of CART19 killing / CART cell cytotoxicity: strong enhancement of CART19 killing
